Source: patent US4069223A, “4-Aminomethyl-1-(3,3,3-triarylpropyl)-4-arylpiperidine and derivatives thereof” (G. D. Searle & Co., priority 1977, dated 1978)

Assays:
mouse = assay: Tail clip test (analgesic effect); type: in vivo; conditions: 100 mpk, intragastric
Description: The assessment of the analgesic effect of the present compounds was conducted in the tail clip test.
A specific clip is applied to the base of the tail of the mouse (adult male weighing 18-25 grams) and the time for the animal to turn around to bite at it is measured. The sensitivity of each mouse is determined one-half hour prior to drug administration. Only those mice attempting to bite the clip are included in the experiment. The test compound is then administered intragastrically and the response to placement of the clip is determined at 30, 60, 90 and 120 minutes after treatment. A response is considered positive if the animal takes more than 2 times the pre-drug time to bite at the clip at any of these time intervals. A test compound is considered active when 50 percent or more of the animals used show a positive response.

[1] = tested on: castor oil induced diarrhea; assay: Castor oil induced diarrhea in the rat; type: in vivo, Charles River male rats; conditions: for ED50: Rattus norvegicus, po, 1 hour before castor oil; for Potency: relative to diphenoxylate hydrochloride
Description: Adult Charles River male rats were fasted in community cages for 24 hours prior to the test, with free access to water. The compound was administered intragastrically (suspended on 0.5% methycellulose) one hour prior to the administration of castor oil at the dose of 1.0 ml/rat intragastrically. The rats were then observed for the presence or absence of diarrhea, at hourly intervals for up to 8 hours past administration of castor oil. The median effective dose values at each hourly interval were calculated for the compound using the method of Berkson (1953). […] For example:
Comparative Oral Antidiarrheal Potency and Duration of 4-aminomethyl-1-1-(3,3,3-triphenylpropyl)-4-phenylpiperidine hydrochloride (Compound A) to Diphenoxylate hydrochloride in Rat Castor Oil Diarrhea Test.

`Cl.NCC1(c2ccccc2)CCN(CCC(c2ccccc2)(c2ccccc2)c2ccccc2)CC1` [Compound A, 4-aminomethyl-1-(3,3,3-triphenylpropyl)-4-phenylpiperidine hydrochloride] was tested, and the analgesic effect (mouse) was “weak analgesic effect”, the ED50 ([1]; 2 hours after castor oil, intragastric) was 3.53 mg/kg and the ED50 ([1]; 3 hours after castor oil, intragastric) was 4.24 mg/kg. The ED50 ([1]; 4 hours after castor oil, intragastric) was 5.4 mg/kg, the ED50 ([1]; 5 hours after castor oil, intragastric) was 5.58 mg/kg and the ED50 ([1]; 6 hours after castor oil, intragastric) was 5.79 mg/kg. The ED50 ([1]; 7 hours after castor oil, intragastric) was 7.48 mg/kg, the ED50 ([1]; 8 hours after castor oil, intragastric) was 7.48 mg/kg and the “inhibition of gastrointestinal motility” value ([1]; rat castor oil test, intragastric) was “found to inhibit gastrointestinal motility”. The Potency ([1]; 2 hours after castor oil) was 0.06, the Potency ([1]; 3 hours after castor oil) was 0.11 and the Potency ([1]; 4 hours after castor oil) was 0.16. It also gave a Potency ([1]; 5 hours after castor oil) of 0.24, a Potency ([1]; 6 hours after castor oil) of 0.29 and a Potency ([1]; 7 hours after castor oil) of 0.25. The Potency ([1]; 8 hours after castor oil) was 0.26.
